Reference: patent publication US11014911B2, “CDK2 inhibitors” (Pfizer Inc., priority 2019, dated 2021)

molecular target: CDK2/Cyclin E1 full length (Homo sapiens (Human), UniProt P24941); experiment: CDK2/Cyclin E1 full length mobility shift assay; assay type: biochemical

| Structure (SMILES) | Ki [nM] |
| --- | --- |
| CC[C@H](C)NC(=O)O[C@@H]1CC[C@H](c2cc(NC(=O)Cc3cn4ccc(C)nc4n3)n[nH]2)C1 [Example 357, (1R,3S)-3-(3-{[(7-methylimidazo[1,2-a]pyrimidin-2-yl)acetyl]amino}-1H-pyrazol-5-yl)cyclopentyl (2S)-butan-2-ylcarbamate] | 4.08 |
| COc1cc(CC(=O)Nc2cc([C@H]3CC[C@@H](OC(=O)N4C[C@@H](C#N)[C@@H]4C)C3)[nH]n2)ccn1 (single isomer, unassigned) [Example 156] | 2.21 |
| CC(CC(F)(F)F)N(C)C(=O)O[C@@H]1CC[C@H](c2cc(NC(=O)Cc3ccno3)n[nH]2)C1 (single isomer, unassigned) [Example 89] | 0.85 |
| CC[C@H](C)NC(=O)O[C@@H]1CC[C@H](c2cc(NC(=O)Cc3cccnc3OC)n[nH]2)C1 [Example 345, (1R,3S)-3-(3-{[(2-methoxypyridin-3-yl)acetyl]amino}-1H-pyrazol-5-yl)cyclopentyl (2S)-butan-2-ylcarbamate] | 2.66 |
| CC(CC(F)(F)F)N(C)C(=O)O[C@@H]1CC[C@H](c2cc(NC(=O)c3cnnn3C)n[nH]2)C1 (single isomer, unassigned) [Example 411] | 2.58 |
| CCC(O)CNC(=O)O[C@@H]1CC[C@H](c2cc(NC(=O)Cc3ccc(OC)cc3)n[nH]2)C1 (single isomer, unassigned) [Example 541] | 1.85 |
| Cc1ncc(CC(=O)Nc2cc([C@H]3CC[C@@H](OC(=O)NC(C)C(C)(F)F)C3)[nH]n2)s1 (single isomer, unassigned) [Example 390] | 3.74 |
| Cc1nnc(CC(=O)Nc2cc([C@H]3CC[C@@H](OC(=O)NC4(C)CCC4)C3)[nH]n2)o1 [Example 459, (1R,3S)-3-(3-{[(5-methyl-1,3,4-oxadiazol-2-yl)acetyl]amino}-1H-pyrazol-5-yl)cyclopentyl (1-methylcyclobutyl)carbamate] | 0.32 |
| COc1cc(CC(=O)Nc2cc([C@@H]3CC[C@H](OC(=O)NC4CCOCC4)C3)[nH]n2)ccn1 [Example 503, (1S,3R)-3-(3-{[(2-methoxypyridin-4-yl)acetyl]amino}-1H-pyrazol-5-yl)cyclopentyl tetrahydro-2H-pyran-4-ylcarbamate] | 2.13 |
| CC(CC(F)(F)F)N(C)C(=O)O[C@@H]1CC[C@H](c2cc(NC(=O)c3cnnn3C)n[nH]2)C1 (single isomer, unassigned) [Example 412] | 0.19 |
| CC(C)n1cc(CC(=O)Nc2cc([C@H]3CC[C@@H](OC(=O)NC4(C)CC4)C3)[nH]n2)nn1 [Example 436, (1R,3S)-3-[3-({[1-(propan-2-yl)-1H-1,2,3-triazol-4-yl]acetyl}amino)-1H-pyrazol-5-yl]cyclopentyl (1-methylcyclopropyl)carbamate] | 3.3 |
| COc1cc(CC(=O)Nc2cc([C@H]3CC[C@@H](OC(=O)NCC(F)(F)F)C3)[nH]n2)ccn1 [Example 255, (1R,3S)-3-(3-{[(2-methoxypyridin-4-yl)acetyl]amino}-1H-pyrazol-5-yl)cyclopentyl (2,2,2-trifluoroethyl)carbamate] | 1.69 |
| COc1ccc(CC(=O)Nc2cc([C@@H]3CC[C@H](OC(=O)N[C@H]4CC[C@@H](O)CC4)C3)[nH]n2)cn1 [Example 553, (1S,3R)-3-(3-{[(6-methoxypyridin-3-yl)acetyl]amino}-1H-pyrazol-5-yl)cyclopentyl (cis-4-hydroxycyclohexyl)carbamate] | 0.41 |
| CCNC(=O)O[C@@H]1CC[C@H](c2cc(NC(=O)Cc3cccc4scnc34)n[nH]2)C1 [Example 234, (1R,3S)-3-{3-[(1,3-benzothiazol-4-ylacetyl)amino]-1H-pyrazol-5-yl}cyclopentyl ethylcarbamate] | 4.11 |
| CC[C@H](C)NC(=O)O[C@@H]1CC[C@H](c2cc(NC(=O)Cc3ncc(C)s3)n[nH]2)C1 [Example 341, (1R,3S)-3-(3-{[(5-methyl-1,3-thiazol-2-yl)acetyl]amino}-1H-pyrazol-5-yl)cyclopentyl (2S)-butan-2-ylcarbamate] | 0.64 |
| COc1cc(CC(=O)Nc2cc([C@H]3CC[C@@H](OC(=O)NC(C)C(C)(F)F)C3)[nH]n2)ccn1 (single isomer, unassigned) [Example 392] | 3.14 |
| COc1cc(CC(=O)Nc2cc([C@@H]3CC[C@H](OC(=O)NCC4CCN(C(C)=O)CC4)C3)[nH]n2)ccn1 [Example 581, (1S,3R)-3-(3-{[(2-methoxypyridin-4-yl)acetyl]amino}-1H-pyrazol-5-yl)cyclopentyl[(1-acetylpiperidin-4-yl)methyl]carbamate] | 2.62 |
| CCCNC(=O)O[C@@H]1CC[C@H](c2cc(NC(=O)Cc3ccccc3S(=O)(=O)C(C)C)n[nH]2)C1 [Example 211, (1R,3S)-3-[3-({[2-(propan-2-ylsulfonyl)phenyl]acetyl}amino)-1H-pyrazol-5-yl]cyclopentyl propylcarbamate] | 4.87 |
| COc1ccc(CC(=O)Nc2cc([C@H]3CC[C@@H](OC(=O)N4C[C@@H](O)[C@@H]4C)C3)[nH]n2)cn1 [Example 615, (1R,3S)-3-(3-{[(6-methoxypyridin-3-yl)acetyl]amino}-1H-pyrazol-5-yl)cyclopentyl (2S,3R)-3-hydroxy-2-methylazetidine-1-carboxylate] | 1.99 |
| CC1(NC(=O)O[C@@H]2CC[C@H](c3cc(NC(=O)Cc4ncccc4F)n[nH]3)C2)CC1 [Example 429, (1R,3S)-3-(3-{[(3-fluoropyridin-2-yl)acetyl]amino}-1H-pyrazol-5-yl)cyclopentyl (1-methylcyclopropyl)carbamate] | 1.15 |
| CC1(NC(=O)O[C@@H]2CC[C@H](c3cc(NC(=O)Cc4ccccc4)n[nH]3)C2)CCOC1 (single isomer, unassigned) [Example 125] | 0.34 |
| Cc1cnc(CC(=O)Nc2cc([C@H]3CC[C@@H](OC(=O)NC4(C)CCOCC4)C3)[nH]n2)o1 [Example 508, (1R,3S)-3-(3-{[(5-methyl-1,3-oxazol-2-yl)acetyl]amino}-1H-pyrazol-5-yl)cyclopentyl (4-methyltetrahydro-2H-pyran-4-yl)carbamate] | 1.46 |
| CCC(CO)CNC(=O)O[C@@H]1CC[C@H](c2cc(NC(=O)Cc3cnc(C)o3)n[nH]2)C1 (single isomer, unassigned) [Example 527] | 2.63 |

Next, values leading:

| Ki [nM] | Structure (SMILES) |
| --- | --- |
| 1.84 | Cc1cc(CC(=O)Nc2cc([C@H]3CC[C@@H](OC(=O)N4CCOC[C@H]4C)C3)[nH]n2)on1 [Example 643, (1R,3S)-3-(3-{[(3-methyl-1,2-oxazol-5-yl)acetyl]amino}-1H-pyrazol-5-yl)cyclopentyl (3R)-3-methylmorpholine-4-carboxylate] |
| 0.36 | COc1cnc(CC(=O)Nc2cc([C@H]3CC[C@@H](OC(=O)NC(C)(C)C)C3)[nH]n2)s1 [Example 311, (1R,3S)-3-(3-{[(5-methoxy-1,3-thiazol-2-yl)acetyl]amino}-1H-pyrazol-5-yl)cyclopentyl tert-butylcarbamate] |
| 0.19 | CC1(NC(=O)O[C@@H]2CC[C@H](c3cc(NC(=O)Cc4ccc5ncccc5n4)n[nH]3)C2)CC1 [Example 132] |
| 0.5 | COc1cc(C(=O)Nc2cc([C@H]3CC[C@@H](OC(=O)NC(C)(C)C)C3)[nH]n2)n(C)n1 [Example 302, (1R,3S)-3-(3-{[(3-methoxy-1-methyl-1H-pyrazol-5-yl)carbonyl]amino}-1H-pyrazol-5-yl)cyclopentyl tert-butylcarbamate] |
| 3.54 | CC(C)NC(=O)O[C@@H]1CC[C@H](c2cc(NC(=O)C3COc4ccccc43)n[nH]2)C1 (single isomer, unassigned) [Example 57] |
| 3.33 | CCCNC(=O)O[C@H]1CC[C@@H](c2cc(NC(=O)Cc3cn4ccccc4n3)n[nH]2)C1 [Example 191, (1S,3R)-3-{3-[(imidazo[1,2-a]pyridin-2-ylacetyl)amino]-1H-pyrazol-5-yl}cyclopentyl propylcarbamate] |
| 1.09 | CC(C)(C)NC(=O)O[C@@H]1CC[C@H](c2cc(NC(=O)Cc3coc(C4CC4)n3)n[nH]2)C1 [Example 306, (1R,3S)-3-(3-{[(2-cyclopropyl-1,3-oxazol-4-yl)acetyl]amino}-1H-pyrazol-5-yl)cyclopentyl tert-butylcarbamate] |
| 0.43 | Cc1nc(CC(=O)Nc2cc([C@H]3CC[C@@H](OC(=O)NC(C)(C)C)C3)[nH]n2)ccc1Cl [Example 312, (1R,3S)-3-(3-{[(5-chloro-6-methylpyridin-2-yl)acetyl]amino}-1H-pyrazol-5-yl)cyclopentyl tert-butylcarbamate] |
| 0.8 | CCCNC(=O)O[C@H]1CC[C@@H](c2cc(NC(=O)Cc3ccnc(OC)c3O)n[nH]2)C1 [Example 194, (1S,3R)-3-(3-{[(3-hydroxy-2-methoxypyridin-4-yl)acetyl]amino}-1H-pyrazol-5-yl)cyclopentyl propylcarbamate] |
| 0.31 | Cc1ncc(CC(=O)Nc2cc([C@H]3CC[C@@H](OC(=O)NC(C)C)C3)[nH]n2)s1 [Example 2, (1R,3S)-3-(3-{[(2-methyl-1,3-thiazol-5-yl)acetyl]amino}-1H-pyrazol-5-yl)cyclopentyl propan-2-ylcarbamate] |
| 0.17 | Cc1nnc(CC(=O)Nc2cc([C@H]3CC[C@@H](OC(=O)NC4(C)CCC4)C3)[nH]n2)s1 [Example 18, (1R,3S)-3-(3-{[(5-methyl-1,3,4-thiadiazol-2-yl)acetyl]amino}-1H-pyrazol-5-yl)cyclopentyl (1-methylcyclobutyl)carbamate] |
| 3.8 | CCCNC(=O)O[C@@H]1CC[C@H](c2cc(NC(=O)Cc3ccccc3S(=O)(=O)C3CC3)n[nH]2)C1 [Example 210, (1R,3S)-3-[3-({[2-(cyclopropylsulfonyl)-phenyl]acetyl}amino)-1H-pyrazol-5-yl]cyclopentyl propylcarbamate] |
| 1.77 | COc1cc(CC(=O)Nc2cc([C@H]3CC[C@@H](OC(=O)N4CCC4C)C3)[nH]n2)ccn1 (single isomer, unassigned) [Example 154] |
| 1.95 | O=C(Cc1ccno1)Nc1cc([C@H]2CC[C@@H](OC(=O)NCC3CC3)C2)[nH]n1 [Example 465, (1R,3S)-3-{3-[(1,2-oxazol-5-ylacetyl)amino]-1H-pyrazol-5-yl}cyclopentyl (cyclopropylmethyl)carbamate] |
| 0.29 | Cn1ncc(CC(=O)Nc2cc([C@H]3CC[C@@H](OC(=O)NC(C)(C)C)C3)[nH]n2)n1 [Example 110] |
